The EC50 is the concentration giving half of the maximal effect. For orientation: Emax means the greatest response seen or fitted, relative to the assay's reference.

This is an account of results in US12180192B2, “Modulators of THR-β and methods of use thereof” (ALIGOS THERAPEUTICS, INC., priority 2019, dated 2024).

The test concerns CPT1A gene expression in Huh-7 cells. Put plainly: Huh-7 differential gene expression, CPT1A RT-qPCR (Assay 3). It counts as cell-based. The conditions noted are these: Homo sapiens, Huh-7, 24 h, Table 6, Huh-7 cells, CPT1A, 24 hr treatment; for EC50: read-out: Activity category Assay 3 EC50; for Emax: read-out: Activity category Assay 3 Emax. The protocol: Huh-7 Differential Gene Expression (Assay 3)
Fetal bovine serum (FBS) was incubated with washed resin (50 mg resin/mL FBS; resin weight is dry weight of resin prior to washing) for 5 hr at room temperature on a rotor. The FBS was separated from the resin via centrifugation and incubated with new, washed resin for 18 h at room temperature on a rotor.
Cell Culture and Drug Treatment
Huh-7 cells were cultured in DMEM (10-013-CM, Corning) supplemented with 10% FBS and 1% Pen-Strep at 37° C. under 5% C02. When 70-80% confluence was reached, the cells were removed by trypsinization. The medium was aspirated from the cell culture dish, the cell monolayer was washed with 1×PBS, and 0.05% trypsin, 0.53 mM EDTA (25-052-CV, Corning) solution was added to the dish. After 3 min incubation, the cells were detached completely by repeatedly pipetting solution onto the monolayer. Equal volume of DMEM supplemented with 10% rFBS and 1% Pen-Strep (TH-depleted DMEM) was added to the dish to inactivate the trypsin. The cell suspension was centrifuged at 350×g at room temperature for 3 min. The supernatant was aspirated out and the cell pellet was resuspended in TH-depleted DMEM. […] After 24 hr incubation, the media was replaced with treatment media. All compounds were serially diluted in DMSO and final concentrations were reached by dilution in TH-depleted DMEM (0.1% DMSO). The cells were incubated in treatment media for 24 hr. Treatments were performed in biological duplicates.
After 24 hr in treatment media, the cells were lysed directly on the culture plates and cDNA was produced using the TaqMan™ Fast Advanced Cells-to-CT™ Kit (A35374, Invitrogen) and following the manufacturer's protocol. RT-qPCR for CPT1A (Hs00912671_m1) and two housekeeping genes, ACTB (Hs01060665_g1) and TFG (Hs02832013_g1), was performed using TaqMan™ Fast Advanced Master Mix. RT-qPCR reactions were run on the qTOWER^3 84 G (Analytik Jena) in technical duplicates.
ΔRn values were obtained from the qPCRsoft384 1.0 software and CPT1A gene expression was quantified via the 2-ΔΔCt method. Dose-response curves were generated using GraphPad Prism 8 using four parameter logistic equation without top constraint to derive EC50 and Emax.
In general terms: Real-time PCR tracks product formation cycle by cycle.

Regarding `CC(C)c1n[nH]c2nnc(Oc3c(Cl)cc(-n4nc(C#N)c(=O)[nH]c4=O)cc3Cl)cc12` [Compound 75A, 2-(3,5-Dichloro-4-((3-isopropyl-1H-pyrazolo[3,4-c]pyridazin-5-yl)oxy)phenyl)-3,5-dioxo-2,3,4,5-tetrahydro-1,2,4-triazine-6-carbonitrile], the EC50 is more than 100 nM and the Emax is more than 75%.
The corresponding values for `Nc1nn(-c2cc(Cl)c(Oc3ccc4c(c3)C3(CCCC3)C(=O)N4)c(Cl)c2)c(=O)[nH]c1=O` [Compound 83] are less than 100 nM and more than 75%.
The corresponding values for `CC1(C)CC(c2cc(Oc3c(Cl)cc(-n4nc(N)c(=O)[nH]c4=O)cc3Cl)n[nH]c2=O)C1` [Compound 89, 6-Amino-2-(3,5-dichloro-4-((5-(3,3-dimethylcyclobutyl)-6-oxo-1,6-dihydropyridazin-3-yl)oxy)phenyl)-1,2,4-triazine-3,5(2H,4H)-dione] are 100 to 1000 nM and more than 75%.
The corresponding values for `Cc1cc(-n2nc(C#N)c(=O)[nH]c2=O)cc(C)c1Cc1ccc2[nH]c(=O)cc(C(C)C)c2c1` [Compound 90, 2-(4-((4-Isopropyl-2-oxo-1,2-dihydroquinolin-6-yl)methyl)-3,5-dimethylphenyl)-3,5-dioxo-2,3,4,5-tetrahydro-1,2,4-triazine-6-carbonitrile] are more than 100 nM and 50 to 75%.
With `Nc1nn(-c2cc(Cl)c(Oc3cc(C4CC5(CC5)C4)c(=O)[nH]n3)c(Cl)c2)c(=O)[nH]c1=O` [Compound 93], the EC50 is less than 100 nM and the Emax is 50 to 75%.
The corresponding values for `Nc1nn(-c2cc(Cl)c(Oc3cc(C4CC5(CCC5)C4)c(=O)[nH]n3)c(Cl)c2)c(=O)[nH]c1=O` [Compound 94] are 100 to 1000 nM and 50 to 75%.
For `Nc1nn(-c2cc(Cl)c(Oc3cc(C45CCC(C4)C5)c(=O)[nH]n3)c(Cl)c2)c(=O)[nH]c1=O` [Compound 101] the same measures were less than 100 nM and less than 50%.
Regarding `Cc1ccc(-c2cc(Oc3c(Cl)cc(-n4nc(N)c(=O)[nH]c4=O)cc3Cl)n[nH]c2=O)cc1C` [Compound 112], the EC50 was in the range of 100 to 1000 nM and the Emax is more than 75%.
The corresponding values for `Nc1nn(-c2cc(Cl)c(Oc3cc(-c4ccc5c(c4)CCCO5)c(=O)[nH]n3)c(Cl)c2)c(=O)[nH]c1=O` [Compound 114] are 100 to 1000 nM and 50 to 75%.
For `Nc1nn(-c2cc(Cl)c(Oc3n[nH]c(=O)cc3-c3ccc4c(c3)CCCO4)c(Cl)c2)c(=O)[nH]c1=O` [Compound 115] the same measures were more than 100 nM and more than 75%.
The corresponding values for `CC(C)Nc1n[nH]c2ccc(Oc3c(Cl)cc(-n4nc(C#N)c(=O)[nH]c4=O)cc3Cl)cc12` [Compound 145, 2-(3,5-dichloro-4-((3-(isopropylamino)-1H-indazol-5-yl)oxy)phenyl)-3,5-dioxo-2,3,4,5-tetrahydro-1,2,4-triazine-6-carbonitrile] are 100 to 1000 nM and more than 75%.
With `CC(C)c1cc(=O)[nH]c2ccc(Oc3c(Cl)cc(-n4nc(N)c(=O)[nH]c4=O)cc3Cl)cc12` [Compound 146, 6-amino-2-[3,5-dichloro-4-[(4-isopropyl-2-oxo-1H-quinolin-6-yl)oxy]phenyl]-1,2,4-triazine-3,5-dione], the EC50 was in the range of 100 to 1000 nM and the Emax is more than 75%.
For `Cc1cc(-n2nc(C#N)c(=O)[nH]c2=O)cc(C)c1Cc1ccc2c(c1)C1(CC1)C(=O)N2` [Compound 148, 2-(3,5-dimethyl-4-((2′-oxospiro[cyclopropane-1,3′-indolin]-5′-yl)methyl)phenyl)-3,5-dioxo-2,3,4,5-tetrahydro-1,2,4-triazine-6-carbonitrile] the same measures were 100 to 1000 nM and more than 75%.
For `Cc1cc(-n2nc(N)c(=O)[nH]c2=O)cc(C)c1Cc1ccc2c(c1)C1(CC1)C(=O)N2` [Compound 151, 6-Amino-2-(3,5-dimethyl-4-((2′-oxospiro[cyclopropane-1,3′-indolin]-5′-yl)methyl)phenyl)-1,2,4-triazine-3,5(2H,4H)-dione] the same measures were less than 100 nM and more than 75%.
The corresponding values for `Cc1cc(-n2nc(N)c(=O)[nH]c2=O)cc(C)c1Cc1cc2c(C(C)C)c[nH]c2cn1` [Compound 157, 6-amino-2-[4-[(3-isopropyl-1H-pyrrolo[2,3-c]pyridin-5-yl)methyl]-3,5-dimethyl-phenyl]-1,2,4-triazine-3,5-dione] are less than 100 nM and more than 75%.
Take `Nc1nn(-c2cc(Cl)c(Oc3cc(C4Cc5ccccc54)c(=O)[nH]n3)c(Cl)c2)c(=O)[nH]c1=O` (centres unmarked) [Compound 158]: the EC50 was more than 100 nM and the Emax is less than 50%.
